3 molecules from patent US8957045B2, “Nucleoside phosphoramidates” (Gilead Pharmasset LLC, priority 2008, dated 2015) can be followed below.

Series [1] concerns HCV replicon RNA-containing Huh7 cells (clone A cells). The experiment in a line: HCV replicon assay. Type of series: cell-based. The note with it: 4 days incubation, replicon RNA by RT-PCR, EC90 = 1-log10 reduction (ΔCt of 3.3), read-out: CloneA EC90. As for the experimental part:
HCV replicon RNA-containing Huh7 cells (clone A cells; Apath, LLC, St. Louis, Mo.) were kept at exponential growth in Dulbecco's modified Eagle's medium (high glucose) containing 10% fetal bovine serum, 4 mM L-glutamine and 1 mM sodium pyruvate, 1× nonessential amino acids, and G418 (1,000 μg/ml). Antiviral assays were performed in the same medium without G418. Cells were seeded in a 96-well plate at 1,500 cells per well, and test compounds were added immediately after seeding. Incubation time 4 days. At the end of the incubation step, total cellular RNA was isolated (RNeasy 96 kit; Qiagen). Replicon RNA and an internal control (TaqMan rRNA control reagents; Applied Biosystems) were amplified in a single-step multiplex RT-PCR protocol as recommended by the manufacturer. The HCV primers and probe were designed with Primer Express software (Applied Biosystems) and covered highly conserved 5′-untranslated region (UTR) sequences (sense primer: 5′-AGCCATGGCGTTAGTA(T)GAGTGT-3′ (SEQ ID NO:1); antisense primer: 5′-TTCCGCAGACCΔCTATGG-3′ (SEQ ID NO:2); and probe: 5′-FAM-[…]-TAMRA-3′ (SEQ ID NO:3)).
To express the antiviral effectiveness of a compound, the threshold RT-PCR cycle of the test compound was subtracted from the average threshold RT-PCR cycle of the no-drug control (ΔCtHCV). A ΔCt of 3.3 equals a 1-log 10 reduction (equal to the 90% effective concentration [EC90]) in replicon RNA levels. The cytotoxicity of the test compound could also be expressed by calculating the ΔCTRNA values. The ΔΔCt specificity parameter could then be introduced (ΔCtHCV-ΔCtRNA), in which the levels of HCV RNA are normalized for the rRNA levels and calibrated against the no-drug control.
On the technique in general: Replicon systems follow genome replication, usually without infectious particles.

Where two headings read alike, the source gives them in different places.

By EC90 is commonly meant the concentration needed for an effect of 90%. The melting point is the temperature of the solid-liquid transition.

As to `COC(=O)[C@H](C)NP(=O)(OC[C@H]1O[C@@H](n2cnc3c(N4CCC4)nc(N)nc32)[C@](C)(F)[C@@H]1O)Oc1ccccc1` (stereo partly shown) [Compound 12], in series [1], the EC90 came to 0.07 µM.
On to `COc1nc(N)nc2c1ncn2[C@@H]1O[C@H](COP(=O)(N[C@@H](C)C(=O)OC(C)C)Oc2ccccc2)[C@@H](O)[C@@]1(C)F` (stereo partly drawn) [Compound 11, (2S)-isopropyl 2-((((2R,3R,4R,5R)-5-(2-amino-6-methoxy-9H-purin-9-yl)-4-fluoro-3-hydroxy-4-methyltetrahydrofuran-2-yl)methoxy) (phenoxy)phosphorylamino)propanoate], for which the EC90 in series [1] (Hepatitis C virus, Huh-7, 96 h) was 0.02 µM.
For the molecule `C[C@H](NP(=O)(OC[C@H]1O[C@@H](n2cnc3c(O)nc(N)nc32)[C@](C)(F)[C@@H]1O)Oc1ccccc1)C(=O)OC1CCCC1` (stereo partly drawn) [Compound 14, (2S)-cyclopentyl 2-((((2R,3R,4R,5R)-5-(2-amino-6-hydroxy-9H-purin-9-yl)-4-fluoro-3-hydroxy-4-methyltetrahydrofuran-2-yl)methoxy) (phenoxy)phosphorylamino)propanoate], the melting point fell in the range of 133 to 150 °C. Moreover, the EC90 in series [1] (Hepatitis C virus, Huh-7, 96 h) was found to be 0.13 µM.
